Measurements reported in patent US6746667B2, “Adhesive treatment for tinea pedis” (Closure Medical Corporation, priority 2001, dated 2004).

Assay: observation of haloprogin / 2-octyl cyanoacrylate monomer composition after preparation
Type: physicochemical
Conditions: 30 mg in 2 mL 2-octyl cyanoacrylate monomer; about one minute and at least twenty-four hours after preparation
Protocol: A 2-octyl cyanoacrylate monomer composition is prepared by adding 30 mg of haloprogin, an anti-fungal agent, to 2 mL of 2-octyl cyanoacrylate monomer. The mixture is sealed in a glass vial and stirred. The characteristics of the composition are observed at about one minute after preparation and later at least twenty-four hours after preparation.

In the case of `Clc1cc(Cl)c(OCC#CI)cc1Cl` [haloprogin], the “premature polymerization of the monomer (stability)” value was “does not cause premature polymerization” and the “solubility in the monomer” value was “soluble in the monomer”.
